Where two headings read alike, the source gives them in different places.
Tests used:
[1] = Phase I dose escalation, toxicity (CTC v2.0) in patients with advanced solid malignancies; type: in vivo
Experimental: The study was divided into two parts. Part A was an open-label dose-escalation study to define the maximum tolerated dose (MTD). Part B was an enrichment phase in female patients having advanced breast cancer for whom there was no standard therapy available.
AZD3409 was administered continuously starting on day 1 of each cycle of 21 days. A modified Fibonacci schedule was used for dose escalation, starting from 500 mg AZD3409. […] At least three patients were treated at each dose level. The occurrence of a DLT in a patient during the first cycle led to enrolment of three additional patients. Patients with progressive disease were removed from the study and patients who were removed within the first cycle of the study for reasons other than drug-related toxicity were replaced.
Pretreatment evaluation included a complete medical history and physical examination. Measurable and evaluable disease was documented before the start of the study and during the study as a basis for the assessment of clinical activity of the treatment. Tumour response was recorded according to RECIST criteria ([Therasse et al, 2000]). Toxicity was monitored at each visit. […] DLT was defined as any of the following events during the first treatment cycle: grade 3 or 4 anaemia or thrombocytopaenia, febrile neutropaenia grade 3, or grade 4 neutropaenia, grade 3 or 4 biochemical toxicity, grade 2 (or worse) nausea and vomiting despite optimal antiemetic therapy, grade 3 or 4 diarrhoea despite optimal loperamide support, failure to take study medication for 7 days or more within the first treatment cycle due to drug-related toxicity or any CTC grade 3 or 4 nonhaematological toxicity (excluding alopaecia). The MTD was defined as the dose below the dose at which two or three of three, or two or more of six patients experienced DLT during cycle 1.

[2] = Plasma pharmacokinetics (LC-MS/MS, noncompartmental) in phase I patients; type: in vivo, human; conditions: for Cmax / AUC: human, plasma, oral; for AUC: read-out: AUC0−τ
Experimental: Pharmacokinetic studies were performed in all patients. Ethylenediaminetetraacetic acid blood samples were collected during the first cycle: on day 1 before the first drug intake and 0.5, 1, 2, 4, 6, 8, 12 and 24 h after administration; on days 3, 8 and 15 before the morning drug intake and 2 h after administration; and on day 22 before the morning drug intake and 0.5, 1, 2, 4, 6, 8, 12 and 24 h after administration. Samples were immediately put on ice and centrifuged at 4°C for 10 min at 1500 g. The resulting plasma was stored at −70°C until analysis. Plasma samples of the last three patients were not measured as the study was stopped before analysis.
The total plasma concentrations of AZD3409 ester and AZD3409 acid were determined by LC–MS/MS. The plasma samples were treated with dithiothreitol to reduce any disulphide bonds. The sample pretreatment was based on protein precipitation with acidic acetonitrile. Isotopically labelled analogues were used as internal standards. The method has been validated regarding selectivity, accuracy, precision and stability in human plasma. The lower limit of quantification was 3 ng ml^−1 for both AZD3409 ester and AZD3409 acid, with a 50 μl sample volume.
The following PK parameters were determined, either by direct observation or by noncompartmental analysis (WinNonlin, version 5.0.1; Pharsight, Mountain View, CA, USA): the minimal plasma concentration (Cmin), the maximal plasma concentration (Cmax), the area under the curve within one dosing interval (AUC0−τ) and total plasma clearance (Cl/F). Correlations between dose and Cmax levels and between dose and AUC0−τ were analysed on day 1 using the nonparametric Spearman's ρ (Rs) correlation test. Accumulation was tested with an exact Wilcoxon's rank paired signed test. Linear measures mixed effects models were constructed with SAS (SAS Institute Inc., Cary, NC, USA) to determine the effect of the dose on the trough plasma concentrations of both metabolites. The daily dose, time (days), gender and age were considered to be a fixed effect, and the patient variable was considered to be a random effect. Owing to the distribution of the trough plasma concentration log transformation was applied.

[3] = 500 mg once daily, day 1, dose 500 (once daily), N=3, mean (SD)
[4] = 500 mg once daily, day 22, dose 500 (once daily), N=2, absolute values
[5] = 750 mg b.i.d., day 1, dose 750 b.i.d., N=8, mean (SD)
[6] = 750 mg b.i.d., day 22, dose 750 b.i.d., N=3, mean (SD)
[7] = 1000 mg once daily, day 1, dose 1000 (once daily), N=3, mean (SD)
[8] = 1000 mg once daily, day 22, dose 1000 (once daily), N=3, mean (SD)
[9] = 1250 mg b.i.d., day 1, dose 1250 b.i.d., N=6, mean (SD)
[10] = 1250 mg b.i.d., day 22, dose 1250 b.i.d., N=4, mean (SD)
[11] = 1500 mg b.i.d., day 1, dose 1500 b.i.d., N=2, absolute values
[12] = 1750 mg b.i.d., day 1, dose 1750 b.i.d., N=4, mean (SD)
[13] = 1750 mg b.i.d., day 22, dose 1750 b.i.d., N=1
[14] = all dose levels, drug-related nonhaematological toxicity
[15] = cycle 1, 250 mg b.i.d. (part B, fed state), 3 patients
[16] = cycle 1, 750 mg b.i.d., 8 patients
[17] = cycle 1, 1250 mg b.i.d., 6 patients
[18] = cycle 1, 1500 mg b.i.d., 2 patients
[19] = cycle 1, 1750 mg b.i.d., 4 patients
[20] = cycle 1, all doses, 29 patients

## CSCC[C@H](NC(=O)c1cc(NC[C@@H]2C[C@H](S)CN2)ccc1CCc1ccc(F)cc1)C(=O)O [AZD3409 acid]
[1]; at maximal AZD3409 acid plasma concentrations up to 140 ng ml^−1, cycle 1, n=22
  chance to suffer from vomiting (grade 1–2) due to the medication: below 15%
[2]; cycle 1, plasma
  mean time at which Cmax was reached: 2.7 h
[2]; day 1
  Spearman correlation (Rs) between dose and AUC: 0.52
  Spearman correlation (Rs) between dose and Cmax: 0.43
[2]; day 22, dose 500 (once daily), N=2, absolute values
  Cl/F: [465–488] l h^−1
[2]; day 22, dose 750 b.i.d., N=3, mean (SD)
  Cl/F: 473 (155) l h^−1
[2]; day 22, dose 1000 (once daily), N=3, mean (SD)
  Cl/F: 710 (148) l h^−1
[2]; day 22, dose 1250 b.i.d., N=4, mean (SD)
  Cl/F: 785 (311) l h^−1
[2]; day 22, dose 1750 b.i.d., N=1
  Cl/F: 1706 L/h
[2]; dose 500 (once daily), N=2, absolute values
  Ratio AUC0−τ day 22/day 1: [2.07–10.1]
[2]; dose 750 b.i.d., N=3, mean (SD)
  Ratio AUC0−τ day 22/day 1: 9.29 (11.2)
[2]; dose 1000 (once daily), N=3, mean (SD)
  Ratio AUC0−τ day 22/day 1: 2.10 (1.19)
[2]; dose 1250 b.i.d., N=4, mean (SD)
  Ratio AUC0−τ day 22/day 1: 1.95 (1.05)
[2]; dose 1750 b.i.d., N=1
  Ratio AUC0−τ day 22/day 1: 1.23
[2]; [3]
  Cmax: 33.6 ng/mL
  AUC: 160 ng·h/mL
[2]; [4]
  Cmax: 95.9 to 111 ng/mL
  AUC: 712 to 775 ng·h/mL
[2]; [5]
  Cmax: 93.8 ng/mL
  AUC: 468 ng·h/mL
[2]; [6]
  Cmax: 138 ng/mL
  AUC: 934 ng·h/mL
[2]; [7]
  Cmax: 78.6 ng/mL
  AUC: 512 ng·h/mL
[2]; [8]
  Cmax: 106 ng/mL
  AUC: 904 ng·h/mL
[2]; [9]
  Cmax: 119 ng/mL
  AUC: 677 ng·h/mL
[2]; [10]
  Cmax: 168 ng/mL
  AUC: 1230 ng·h/mL
[2]; [11]
  Cmax: 83.5 to 148 ng/mL
  AUC: 458 to 749 ng·h/mL
[2]; [12]
  Cmax: 140 ng/mL
  AUC: 751 ng·h/mL
[2]; [13]
  Cmax: 165 ng/mL
  AUC: 466 ng·h/mL
[2]; twice daily dosing levels
  mean trough total AZD3409 acid concentrations: 36.3 to 81.9 ng/mL

## CSCC[C@H](NC(=O)c1cc(NC[C@@H]2C[C@H](SC(=O)c3cccnc3)CN2)ccc1CCc1ccc(F)cc1)C(=O)OC(C)C [AZD3409]
[1]; 1250 mg b.i.d.
  dose-limiting gastrointestinal toxicity (grade 3 diarrhoea, grade 3 dehydration, grade 2/3 nausea, grade 2 vomiting): three out of six patients
[1]; 1500 mg b.i.d.
  dose-limiting toxicity: unable to continue due to grade 3 diarrhoea and uncontrolled nausea (grade 2), respectively: two patients
[1]; 1750 mg b.i.d.
  dose-limiting toxicity: unable to take the drug due to CTC grade 2 vomiting in spite of antiemetics: two patients
[1]; [14]
  diarrhoea, patients reporting: 41%
  nausea, patients reporting: 55%
  vomiting, patients reporting: 55%
[1]; cycle 1, 29 evaluable patients
  haematological toxicity: No significant haematological toxicity
[1]; [15]
  Nausea grade 1–2, number of patients: 1
  Vomiting grade 1–2, number of patients: 2
[1]; cycle 1, 500 mg, 3 patients
  Anorexia grade 1–2, number of patients: 1
  Fatigue grade 1–2, number of patients: 1
  Nausea grade 1–2, number of patients: 1
  Vomiting grade 1–2, number of patients: 1
[1]; [16]
  Abdominal pain grade 1–2, number of patients: 1
  Anorexia grade 1–2, number of patients: 2
  Diarrhoea grade 1–2, number of patients: 3
  Fatigue grade 1–2, number of patients: 2
  Nausea grade 1–2, number of patients: 5
  Vomiting grade 1–2, number of patients: 4
[1]; cycle 1, 1000 mg, 3 patients
  Diarrhoea grade 1–2, number of patients: 3
  Nausea grade 1–2, number of patients: 2
  Vomiting grade 1–2, number of patients: 2
[1]; [17]
  Abdominal pain grade 1–2, number of patients: 2
  Anorexia grade 1–2, number of patients: 1
  Diarrhoea grade 1–2, number of patients: 2
  Diarrhoea grade 3–4, number of patients: 1
  Fatigue grade 1–2, number of patients: 1
  Nausea grade 1–2, number of patients: 3
  Nausea grade 3–4, number of patients: 1
  Vomiting grade 1–2, number of patients: 3
[1]; [18]
  Diarrhoea grade 3–4, number of patients: 1
  Nausea grade 1–2, number of patients: 1
  Vomiting grade 1–2, number of patients: 1
[1]; [19]
  Anorexia grade 1–2, number of patients: 2
  Diarrhoea grade 1–2, number of patients: 4
  Fatigue grade 1–2, number of patients: 1
  Nausea grade 1–2, number of patients: 3
  Vomiting grade 1–2, number of patients: 3
[1]; [20]
  Abdominal pain grade 1–2, total: 3 (10) n (%)
  Anorexia grade 1–2, total: 6 (21) n (%)
  Diarrhoea grade 1–2, total: 12 (41) n (%)
  Diarrhoea grade 3–4, total: 2 (7) n (%)
  Fatigue grade 1–2, total: 5 (17) n (%)
  Nausea grade 1–2, total: 16 (55) n (%)
  Nausea grade 3–4, total: 1 (3) n (%)
  Vomiting grade 1–2, total: 16 (55) n (%)
[1]; patients, fasted state, continuous oral dosing
  MTD of part A: 750 mg b.i.d.
[2]; after oral administration, rapidly metabolised in the gut and plasma to AZD3409 ester
  appearance of parent drug in blood: does not appear in the blood

From paper PMC2441954, “Phase I pharmacokinetic and pharmacodynamic study of the prenyl transferase inhibitor AZD3409 in patients with advanced cancer” (British Journal of Cancer, 2008)
